Data as given in patent publication US10722578B2, “Methods and compositions for treating neuroblastoma” (The Children's Hospital of Philadelphia, priority 2008, dated 2020).
Where “and” joins values, the source holds several entries; their conditions need not be identical. Equal entries are not always repeated. Entries after “also recorded” stand apart in the source; their conditions may differ. Where two headings read alike, the source gives them in different places.

Legend:
neuroblastoma cell lines = assay: In vitro growth inhibition (RT-CES), panel of neuroblastoma cell lines; assay type: cell-based, human; conditions: 333 nM, 72 hours; for Inhibition of growth, cell lines with ALK amplification or mutations: compared with normal copy number wild type ALK lines
Excerpt: A quantitative assay to evaluate growth inhibition in a multi-well was used in a parallel format to screen for cellular cytotoxicity. […] For FIG. 7, the biochemical consequences of ALK activation and downstream signaling pathways were studied in ALK-mutant lines.
(§1) To verify cell line integrity, all lines were routinely genotyped (AmpFLSTR® Identifiler® kit; Applied Biosystems) and mycoplasma tested.
It has been shown that mRNA knockdown of ALK in neuroblastoma cell lines with mutation or amplification is cytotoxic, and thus ALK inhibition might offer a tractable therapeutic target.

NB1 (WT amplification) = conditions: NB1, dose-dependent
Excerpt: as §1

NB1643 (R1275Q) = conditions: NB1643, dose-dependent
Excerpt: as §1

SH-SY5Y (F1174L) = conditions: did not occur until this dose
Excerpt: as §1

SY5Y cells [1] = assay: Antibody-dependent cell-mediated cytotoxicity assay, SY5Y targets; assay type: cell-based, human; conditions: SY5Y pre-incubated 48 hours with crizotinib, then ALK antibody, mean
Experimental: The Cyto Tox 96 Non-Radioactive Cytotoxicity Assay (Promega) was used to assess antibody-dependent cell mediated cytotoxicity. […] Non-adherent peripheral blood lymphocytes were then replated in complete RPMI containing 1000 IU/ml rhIL-2 (Chiron) and incubated overnight. The following day, effector cells were collected and washed. Target NB1 or SY5Y cells that had been grown on T75 flasks until 70-80% confluency were also harvested and washed. […] Control wells were plated according to the manufacturer's specifications. After a 4-hour incubation at 37° C., cell viability was assessed by an enzymatic assay allowing for the quantification of lactate dehydrogenase which is released upon cell lysis. The % cytotoxicity was calculated as follows: [(Experimental−Effector Spontaneous−Target Spontaneous)/(Target Maximum−Target Spontaneous)]×100. […] Results shown are representative of three independent experiments, and quoted as mean±standard deviation.

SY5Y cells [2] = assay: Propidium iodide staining, cell cycle analysis, SY5Y; assay type: cell-based, human; conditions: 1000 nM crizotinib, 10 μg/ml antibody, or both, mean
[3] = test system: SHSY5Y (F1174L) xenografts; conditions: 100 mg/kg/day oral gavage, 4 weeks; end point tumor volume ≥1.5 cm^3 or treatment related death
NBSD (F1174L) xenografts = conditions: 100 mg/kg/day oral gavage, 4 weeks
NBEBc1 (WT) xenografts = conditions: 100 mg/kg/day oral gavage, 4 weeks
SKNAS (WT) xenografts = conditions: 100 mg/kg/day oral gavage, 4 weeks
pSTAT3, pAKT, and pERK = assay: In vitro phosphoprotein detection (immunoblot), downstream signaling; conditions: NB1 (wild type amplified)

`C[C@@H](Oc1cc(-c2cnn(C3CCNCC3)c2)cnc1N)c1c(Cl)ccc(F)c1Cl` [PF-02341066, crizotinib] was tested, and the “Inhibition of growth, cell lines with normal copy number WT ALK” value (neuroblastoma cell lines) was “No cell lines with normal copy number WT ALK showed significant inhibition”, the “Sensitivity of R1275Q cell lines compared with F1174L cell lines” value (neuroblastoma cell lines) was “more sensitive” and the “Inhibition of growth, cell lines with ALK amplification or mutations” value (neuroblastoma cell lines) was “significantly superior inhibition of growth”. The “Inhibition of growth, cell lines with ALK amplification or mutations” value (neuroblastoma cell lines; listed as PF2341066) was “sensitive; also recorded: significantly more sensitive”, the “Sensitivity of R1275Q cell lines compared with F1174L cell lines” value (neuroblastoma cell lines; listed as PF2341066) was “R1275Q mutations were more sensitive than F1174L mutations; also recorded: significantly more sensitive” and the “Dose at which inhibition of proliferation occurred” value (shortened to “Dose at which inhibition”) (NB1 (WT amplification)) was 33 to 100 nM. For the same molecule, the “Dose at which inhibition” value (NB1643 (R1275Q)) was 33 to 100 nM and 33 nM, the “Dose at which inhibition” value (SH-SY5Y (F1174L)) was 1000 nM and the ADCC % cytotoxicity (SY5Y cells [1]; effector:target 25:1) was 33.7±2.5%. The ADCC % cytotoxicity (SY5Y cells [1]; effector:target 50:1) was 55.7±9.3%, the “sub G0 fraction” value (SY5Y cells [2]) was “increased the sub G0 fraction, but to a smaller extent than seen with dual treatment” and the Prolongation of survival [3] was 7.7 days. The Prolongation of survival (NBSD (F1174L) xenografts) was 3.7 days, the Prolongation of survival (NBEBc1 (WT) xenografts) was 5.1 days and the “Prolongation of survival / days to reach tumor volume of 1.5 cm^3” value (SKNAS (WT) xenografts) was “non-significant difference in days to reach a tumor volume of 1.5 cm^3”. For the same molecule, the “Prolongation of survival / days to reach tumor volume of 1.5 cm^3” value (SKNAS (WT) xenografts; listed as PF-2341066) was “neither a delay in tumor growth (P=0.87) or prolongation of survival” and the “Abrogation of phosphorylation of STAT3, AKT and ERK” value (pSTAT3, pAKT, and pERK) was “substantial abrogation”.
